Results from patent publication US20130225629A1, “TARGETING PI3K/MTOR SIGNALLING AND NEUTROPHIL RECRUITMENT FOR TREATMENT OF ENTERITIS” (THE UNIVERSITY OF NORTH CAROLINA AT CHAPEL HILL, priority 2012, published 2013).

What was measured:
AKT (S473) = assay: Western blot of AKT phosphorylation in colonic lysates of C. jejuni infected mice; type: in vivo; settings: AS252424 10 mg/kg i.p. daily, 6 days
Description: A segment of the distal colon was lysed in 300 μl Laemmli buffer, homogenized and heated at 95° C. for 5 min. 20 μg of total protein were separated by SDS-PAGE and transferred to nitrocellulose membranes. Targeted protein was detected using enhanced chemiluminescence reaction (ECL) as described previously (Muhlbauer et al., 2008). Primary antibodies used were phosphor-AKT (S473), phosphor-p70S6K (T389), total AKT (all from Cell Signaling, Danvers, Mass., United States of America) and EGFP (Sigma, St. Louis, Mo., United States of America). The density of Western blot bands was quantified using ImageJ and data were normalized to total AKT control.

CMT-93 cells = assay: C. jejuni epithelial cell translocation assay (transwell); type: cell-based, Murine; settings: 10 μM AS252424, transwell, up to 5 hrs
Description: Murine rectal carcinoma epithelial CMT-93 cells (1×10^6) were plated onto 12-well Transwells (Corning Inc., Corning, N.Y., United States of America) in DMEM media containing 10% FBS and 2 mM L-glutamine. Upon reached confluency (monolayer), the medium was changed to 1% FBS medium and 10^8 C. jejuni was added to the upper inserts in presence or absence of 10 μM AS252424. Aliquot of medium from bottom wells was collected every hr for 5 hrs, serially diluted and cultured on Remel (Remel, Thermo Scientific, Hampton, N.H., United States of America) plates as described before (Sun et al., 2012). Translocated C. jejuni was reported as CFU/ml at each time point.

Cxcl2 mRNA = assay: Real-time RT-PCR of colonic Cxcl2 mRNA; type: in vivo, mice; settings: AS252424 vs vehicle treated infected mice
Description: Total RNA from colonic tissue was extracted using TRIzol® kit (Invitrogen, Carlsbad, Calif., United States of America). Complementary DNA was prepared using M-MLV (Invitrogen). Messenger RNA levels of proinflammatory genes were determined using SYBR® Green PCR Master Mix (Applied Biosystems, Carlsbad, Calif., United States of America) on an ABI 7900HT Fast Real-Time PCR System and normalized to Gapdh. The polymerase chain reactions were performed according to the manufacturer's recommendation. The following gene primers were used: Gapdh_forward: 5′-[…]-3′ (SEQ ID NO: 2), Gapdh_reverse: 5′-[…]-3′ (SEQ ID NO: 3), II-1_forward: 5′-[…]-3′ (SEQ ID NO: 4), II-1_reverse: 5′-[…]-3′ (SEQ ID NO: 5), Cxcl2_forward: 5′-[…]-3′ (SEQ ID NO: 6), Cxcl2_reverse: 5′-[…]-3′ (SEQ ID NO: 7), II-17a_forward: 5′-[…]-3′ (SEQ ID NO: 8), II-17a_reverse: 5′-[…]-3′ (SEQ ID NO: 9), II12p40_forward: […] (SEQ ID NO: 10), II12p40_reverse: […] (SEQ ID NO: 11), Tnf forward: […] (SEQ ID NO: 12), Tnf reverse: […] (SEQ ID NO: 13).
Total RNA from intestinal tissues was extracted using TRIzol® kit (Invitrogen, Carlsbad, Calif., United States of America) following the manufacture's guide. cDNA was reverse-transcribed using M-MLV (Invitrogen). Proinflammatory 111β, Cxcl2, II17a and Tnfα mRNA expression levels were measured using SYBR® Green PCR Master mix (Applied Biosystems, Carlsbad, Calif., United States of America) on an ABI 7900HT Fast Real-Time PCR System and normalized to Gapdh. The PCR primers used were reported previously. (Sun et al., 2012). The PCR reactions were performed for 40 cycles according to the manufacturer's recommendation, and RNA fold changes were calculated using the ΔΔct method.

For `O=C1NC(=O)/C(=C/c2ccc(-c3ccc(F)cc3O)o2)S1` [AS252424], the “AKT phosphorylation (S473) in colonic extracts” value (AKT (S473)) was “modest reduction”, the “C. jejuni translocation across CMT-93 monolayer” value (CMT-93 cells) was “did not prevent” and the “block of C. jejuni-induced Cxcl2 mRNA accumulation” value (Cxcl2 mRNA) was 73%.
